Experimental data reported in patent publication US12679843B2, “Pyrrolopyrimidine amines as complement inhibitors” (BioCryst Pharmaceuticals, Inc., priority 2020, dated 2026).

The molecules below were run against Factor D (Homo sapiens, UniProt P00746) (assay: Factor D esterolytic assay (Z-Lys-SBzl thioester substrate, DTNB, 405 nm)). Conditions: substrate Z-Lys-SBzl 1.29 mM, 100 mM HEPES, 500 mM NaCl, pH 7.5, 10% DMSO, tested a minimum of three times.
Assay type: biochemical
Method in brief: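 Human Factor D hydrolysis of Z-Lys-SBzl (1.29 mM) monitored at 405 nm via DTNB thiol detection for 600 s, 690 nm background subtracted. Buffer 100 mM HEPES, 500 mM NaCl, pH 7.5, 10% DMSO; substrate added immediately or after room-temperature preincubation. IC50 from percent inhibition of rate, at least three tests.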

Factor D, sequence (P00746 26-253): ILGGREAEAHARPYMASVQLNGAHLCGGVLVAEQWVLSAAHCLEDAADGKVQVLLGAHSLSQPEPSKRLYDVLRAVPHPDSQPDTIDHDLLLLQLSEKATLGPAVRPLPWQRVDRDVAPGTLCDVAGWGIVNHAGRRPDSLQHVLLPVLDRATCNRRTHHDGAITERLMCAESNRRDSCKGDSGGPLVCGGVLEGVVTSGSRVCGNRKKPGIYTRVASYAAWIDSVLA

| IC50 [nM] | SMILES |
| --- | --- |
| < 100 | C[C@@]12C[C@@H](C(=O)Nc3cccc(Br)n3)N(C(=O)Cn3c4cnccc4c4c(N)ncnc43)[C@@H]1C2 [Compound 182a, (1R,3S,5R)-2-(2-(4-amino-9H-pyrido[4′,3′:4,5]pyrrolo[2,3-d]pyrimidin-9-yl)acetyl)-N-(6-bromopyridin-2-yl)-5-methyl-2-azabicyclo[3.1.0]hexane-3-carboxamide] |
| < 100 | C[C@@]12C[C@@H](C(=O)Nc3cccc(Br)n3)N(C(=O)Cn3c4ncccc4c4c(N)ncnc43)[C@@H]1C2 [Compound 183a, (1R,3S,5R)-2-(2-(4-amino-9H-pyrido[3′,2′:4,5]pyrrolo[2,3-d]pyrimidin-9-yl)acetyl)-N-(6-bromopyridin-2-yl)-5-methyl-2-azabicyclo[3.1.0]hexane-3-carboxamide] |
| < 100 | Cc1cc(C(F)(F)F)cc2c3c(N)ncnc3n(CC(=O)N3[C@H](C(=O)Nc4cccc(Br)n4)C[C@@]4(C)C[C@@H]34)c12 [Compound 184g, (1R,3S,5R)-2-(2-(4-amino-8-methyl-6-(trifluoromethyl)-9H-pyrimido[4,5-b]indol-9-yl)acetyl)-N-(6-bromopyridin-2-yl)-5-methyl-2-azabicyclo[3.1.0]hexane-3-carboxamide] |
| < 100 | CC(=O)Nc1ccc2c(c1)c1c(N)ncnc1n2CC(=O)N1[C@H](C(=O)Nc2cccc(Br)n2)C[C@@]2(C)C[C@@H]12 [Compound 185a, (1R,3S,5R)-2-(2-(6-acetamido-4-amino-9H-pyrimido[4,5-b]indol-9-yl)acetyl)-N-(6-bromopyridin-2-yl)-5-methyl-2-azabicyclo[3.1.0]hexane-3-carboxamide] |
| < 100 | C[C@@]12C[C@@H](C(=O)Nc3cccc(Br)n3)N(C(=O)Cn3c4ncnc(N)c4c4cccc(Br)c43)[C@@H]1C2 [Compound 186a, (1R,3S,5R)-2-(2-(4-amino-8-bromo-9H-pyrimido[4,5-b]indol-9-yl)acetyl)-N-(6-bromopyridin-2-yl)-5-methyl-2-azabicyclo[3.1.0]hexane-3-carboxamide] |
| < 100 | CCc1ccc2c(c1)c1c(N)ncnc1n2CC(=O)N1[C@@H]2C[C@@H]2C[C@H]1C(=O)Nc1cccc(Br)n1 [Compound 187c, (1R,3S,5R)-2-(2-(4-amino-6-ethyl-9H-pyrimido[4,5-b]indol-9-yl)acetyl)-N-(6-bromopyridin-2-yl)-2-azabicyclo[3.1.0]hexane-3-carboxamide] |
| < 100 | Nc1ncnc2c1c1cc([N+](=O)[O-])ccc1n2CC(=O)N1[C@@H]2C[C@@H]2C[C@H]1C(=O)Nc1cccc(Br)n1 [Compound 188g, (1R,3S,5R)-2-(2-(4-amino-6-nitro-9H-pyrimido[4,5-b]indol-9-yl)acetyl)-N-(6-bromopyridin-2-yl)-2-azabicyclo[3.1.0]hexane-3-carboxamide] |
| < 100 | Cc1cc(C)c2c(c1)c1c(N)ncnc1n2CC(=O)N1[C@@H]2C[C@@H]2C[C@H]1C(=O)Nc1cccc(Br)n1 [Compound 189g, (1R,3S,5R)-2-(2-(4-amino-6,8-dimethyl-9H-pyrimido[4,5-b]indol-9-yl)acetyl)-N-(6-bromopyridin-2-yl)-2-azabicyclo[3.1.0]hexane-3-carboxamide] |
| < 100 | CCOC(=O)CCc1ccc2c(c1)c1c(N)ncnc1n2CC(=O)N1[C@H](C(=O)Nc2cccc(Br)n2)C[C@@]2(C)C[C@@H]12 [Compound 190a, ethyl 3-(4-amino-9-(2-((1R,3S,5R)-3-((6-bromopyridin-2-yl)carbamoyl)-5-methyl-2-azabicyclo[3.1.0]hexan-2-yl)-2-oxoethyl)-9H-pyrimido[4,5-b]indol-6-yl)propanoate] |
| < 100 | Cc1cc(C)c2c(c1)c1c(N)ncnc1n2CC(=O)N1[C@H](C(=O)Nc2cccc(Br)n2)C[C@@]2(C)C[C@@H]12 [Compound 191a, (1R,3S,5R)-2-(2-(4-amino-6,8-dimethyl-9H-pyrimido[4,5-b]indol-9-yl)acetyl)-N-(6-bromopyridin-2-yl)-5-methyl-2-azabicyclo[3.1.0]hexane-3-carboxamide] |
| < 100 | Cc1cc(Br)cc2c3c(N)ncnc3n(CC(=O)N3[C@@H]4C[C@@H]4C[C@H]3C(=O)Nc3cccc(Br)n3)c12 [Compound 192g, (1R,3S,5R)-2-(2-(4-amino-6-bromo-8-methyl-9H-pyrimido[4,5-b]indol-9-yl)acetyl)-N-(6-bromopyridin-2-yl)-2-azabicyclo[3.1.0]hexane-3-carboxamide] |
| < 100 | Cc1cc(Br)cc2c3c(N)ncnc3n(CC(=O)N3[C@H](C(=O)Nc4cccc(Br)n4)C[C@@]4(C)C[C@@H]34)c12 [Compound 193a, (1R,3S,5R)-2-(2-(4-amino-6-bromo-8-methyl-9H-pyrimido[4,5-b]indol-9-yl)acetyl)-N-(6-bromopyridin-2-yl)-5-methyl-2-azabicyclo[3.1.0]hexane-3-carboxamide] |
| < 100 | Cc1cc(C(F)(F)F)cc2c3c(N)ncnc3n(CC(=O)N3[C@@H]4C[C@@H]4C[C@H]3C(=O)Nc3cccc(Br)n3)c12 [Compound 194a, (1R,3S,5R)-2-(2-(4-amino-8-methyl-6-(trifluoromethyl)-9H-pyrimido[4,5-b]indol-9-yl)acetyl)-N-(6-bromopyridin-2-yl)-2-azabicyclo[3.1.0]hexane-3-carboxamide] |
| < 100 | Nc1ncnc2c1c1cc(CO)ccc1n2CC(=O)N1[C@@H]2C[C@@H]2C[C@H]1C(=O)Nc1cccc(Br)n1 [Compound 195e, (1R,3S,5R)-2-(2-(4-amino-6-(hydroxymethyl)-9H-pyrimido[4,5-b]indol-9-yl)acetyl)-N-(6-bromopyridin-2-yl)-2-azabicyclo[3.1.0]hexane-3-carboxamide] |
| < 100 | CNC(=O)c1ccc2c(c1)c1c(N)ncnc1n2CC(=O)N1[C@H](C(=O)Nc2cccc(Br)n2)C[C@@]2(C)C[C@@H]12 [Compound 196d, 4-amino-9-(2-((1R,3S,5R)-3-((6-bromopyridin-2-yl)carbamoyl)-5-methyl-2-azabicyclo[3.1.0]hexan-2-yl)-2-oxoethyl)-N-methyl-9H-pyrimido[4,5-b]indole-6-carboxamide] |
| < 100 | Cc1ccccc1-c1ccc2c(c1)c1c(N)ncnc1n2CC(=O)N1[C@@H]2C[C@@H]2C[C@H]1C(=O)Nc1cccc(Br)n1 [Compound 197c, (1R,3S,5R)-2-(2-(4-amino-6-(o-tolyl)-9H-pyrimido[4,5-b]indol-9-yl)acetyl)-N-(6-bromopyridin-2-yl)-2-azabicyclo[3.1.0]hexane-3-carboxamide] |
| < 100 | C[C@@]12C[C@@H](C(=O)Nc3cccc(Br)n3)N(C(=O)Cn3c4ncnc(N)c4c4cccc(F)c43)[C@@H]1C2 [Compound 198a, (1R,3S,5R)-2-(2-(4-amino-8-fluoro-9H-pyrimido[4,5-b]indol-9-yl)acetyl)-N-(6-bromopyridin-2-yl)-5-methyl-2-azabicyclo[3.1.0]hexane-3-carboxamide] |
| < 100 | C[C@@]12C[C@@H](C(=O)Nc3cccc(Br)n3)N(C(=O)Cn3c4cc(C(F)(F)F)ccc4c4c(N)ncnc43)[C@@H]1C2 [Compound 199a, (1R,3S,5R)-2-(2-(4-amino-7-(trifluoromethyl)-9H-pyrimido[4,5-b]indol-9-yl)acetyl)-N-(6-bromopyridin-2-yl)-5-methyl-2-azabicyclo[3.1.0]hexane-3-carboxamide] |
| < 100 | C[C@@]12C[C@@H](C(=O)Nc3cccc(Br)n3)N(C(=O)Cn3c4cc(Br)ccc4c4c(N)ncnc43)[C@@H]1C2 [Compound 200a, (1R,3S,5R)-2-(2-(4-amino-7-bromo-9H-pyrimido[4,5-b]indol-9-yl)acetyl)-N-(6-bromopyridin-2-yl)-5-methyl-2-azabicyclo[3.1.0]hexane-3-carboxamide] |
| 100 to 1000 | Nc1ncnc2c1c1cc(C(F)(F)F)ccc1n2CC(=O)N1C[C@H](N)C[C@H]1C(=O)Nc1cccc(Br)n1 [Compound 201e, (2S,4R)-4-amino-1-(2-(4-amino-6-(trifluoromethyl)-9H-pyrimido[4,5-b]indol-9-yl)acetyl)-N-(6-bromopyridin-2-yl)pyrrolidine-2-carboxamide] |
| < 100 | C[C@@]12C[C@@H](C(=O)Nc3cccc(Br)n3)N(C(=O)Cn3c4ccc([N+](=O)[O-])cc4c4c(N)ncnc43)[C@@H]1C2 [Compound 202a, (1R,3S,5R)-2-(2-(4-amino-6-nitro-9H-pyrimido[4,5-b]indol-9-yl)acetyl)-N-(6-bromopyridin-2-yl)-5-methyl-2-azabicyclo[3.1.0]hexane-3-carboxamide] |
| < 100 | C[C@@]12C[C@@H](C(=O)Nc3cccc(Br)n3)N(C(=O)Cn3c4ccc(C(N)=O)cc4c4c(N)ncnc43)[C@@H]1C2 [Compound 203a, 4-amino-9-(2-((1R,3S,5R)-3-((6-bromopyridin-2-yl)carbamoyl)-5-methyl-2-azabicyclo[3.1.0]hexan-2-yl)-2-oxoethyl)-9H-pyrimido[4,5-b]indole-6-carboxamide] |
| < 100 | CNC(=O)c1ccc2c(c1)c1c(N)ncnc1n2CC(=O)N1[C@@H]2C[C@@H]2C[C@H]1C(=O)Nc1cccc(Br)n1 [Compound 204a, 4-amino-9-(2-((1R,3S,5R)-3-((6-bromopyridin-2-yl)carbamoyl)-2-azabicyclo[3.1.0]hexan-2-yl)-2-oxoethyl)-N-methyl-9H-pyrimido[4,5-b]indole-6-carboxamide] |
| < 100 | Cc1ccc(-c2ccc3c(c2)c2c(N)ncnc2n3CC(=O)N2[C@@H]3C[C@@H]3C[C@H]2C(=O)Nc2cccc(Br)n2)cc1 [Compound 205c, (1R,3S,5R)-2-(2-(4-amino-6-(p-tolyl)-9H-pyrimido[4,5-b]indol-9-yl)acetyl)-N-(6-bromopyridin-2-yl)-2-azabicyclo[3.1.0]hexane-3-carboxamide] |
| 100 to 1000 | C[C@@H]1C[C@@H](C(=O)Nc2cccc(Br)n2)N(C(=O)Cn2c3ccc(C(F)(F)F)cc3c3c(N)ncnc32)C1 [Compound 206c, (2S,4R)-1-(2-(4-amino-6-(trifluoromethyl)-9H-pyrimido[4,5-b]indol-9-yl)acetyl)-N-(6-bromopyridin-2-yl)-4-methylpyrrolidine-2-carboxamide] |
